Experiments:
[1] = system: imiquimod induced mouse model of psoriasis; assay: imiquimod induced mouse model of psoriasis; format: in vivo, C57BL/6 mice
Text: FIG. 2A illustrates the methodological details of an imiquimod induced mouse model of psoriasis. In particular, shown is a timeline of the psoriasis induction model and application of the MARCKS inhibitor (BIO 11006) and the three different outcomes analyzed.
FIG. 2B illustrates the skin thickness in micrometers of mice administered imiquimod daily for seven (7) days in order to mimic psoriasis in one (1) test group as compared to the skin thickness in micrometers from either of two (2) control groups. The test group consisted of mice administered imiquimod daily plus intraperitoneal (ip) injection of BIO 11006 as a daily single dose on each of days 1-7. The two (2) control groups consisted of (1) mice administered vaseline and (2) mice administered imiquimod daily and phosphate buffered saline (PBS). N=6-7 mice, mean+SD, 1-way ANOVA, Tukey test.
FIG. 3 depicts images of mice the skin on the nape of the neck for the test group and two control groups described for FIG. 2B and Example 1. #1, 2 and 3 represent same treatments.
FIG. 4 illustrates the percent dryness, flakiness, skin bumps and redness the skin on the nape of the neck for the test group and two control groups described for FIG. 2B and Example 1. At a scale of 0-5, 0 indicated no visible signs or symptoms; 1-3 indicated moderate forms of the respective sign or symptom; 4-5 indicated major forms of the respective sign or symptom.
Since skin inflammation and itch are common problems, two different mouse models with inflammation and itch were developed and used for rigorous in vivo testing of the inhibition of skin inflammation and itch in response to administration of the MARCKS inhibitor BIO11006 (Ac-GAQFSKTAAK-OH; SEQ ID NO: 106). The first model is a mouse model of AD induced using MC903. The second model is a mouse model of psoriasis induced using imiquimod. Imiquimod-induced disease progression of skin inflammation and itch resemble the MC903 mouse model. As such, the same relative timeline and drug delivery was used for the psoriasis mouse model as described for MC903 mouse model with exception that the terminal day was day 7 (D7 in FIG. 2A). As outlined in FIGS. 1A and 2A, these mouse models were used to conduct a comprehensive examination of how BIO11006 spatially and kinetically changed the skin following the onset of AD-like or psoriasis-like disease symptoms by measuring skin thickness, histological, molecular analysis of inflammatory markers, and itch behavior.
Given that the significant skin inflammation was expected to start at day 5, BIO11006 (100 μM) was administered by intraperitoneal injection in three (3) different settings as described in FIG. 2A (i.e., daily single doses from Day 1 through Day 7, Days 6 and 7 or just Day 7). The skin thickness was measured at Day 0, 1, 3, 5, and 7. Additionally, the itch behavior was recorded at Day 0 and Day 7.

[2] = system: MC903 induced mouse model of atopic dermatitis (AD); assay: MC903 induced mouse model of atopic dermatitis (AD); format: in vivo, C57BL/6 mice; settings: BIO11006 100 μM ip; day 10 only, days 9-10, days 4-10 or days 1-10
Text: FIG. 1A illustrates the methodological details of an MC903 induced mouse model of atopic dermatitis (AD). In particular, shown is a timeline of the AD induction model and application of the MARCKS inhibitor (BIO 11006) and the three different outcomes analyzed.
FIG. 1B illustrates the skin thickness in micrometers of mice administered MC903 daily for ten (10) days in order to mimic atopic dermatitis (AD) in each of four (4) test groups as compared to the skin thickness in micrometers of mice from either of two (2) control groups. The four (4) test groups consisted of mice administered MC903 daily plus intraperitoneal (ip) injection of BIO 11006 as either (1) a single dose on day 10, (2) a single dose on each of days 9 and 10, (3) a single dose on each of days 4-10, and (4) a daily single dose on each of days 1-10. The two (2) control groups consisted of (1) mice administered the vehicle only and (2) mice administered MC903 daily and vehicle only. […]
Given that the significant skin inflammation was expected to start at day 5, BIO11006 (100 μM) was administered by intraperitoneal injection in four (4) different settings as described in FIG. 1A (i.e., daily single doses from Day 1 through Day 10, Day 4 through Day 10, Days 9 and 10 or just Day 10). The skin thickness was measured at Day 0, 1, 3, 5, 7 and 10. Additionally, the itch behavior was recorded at Day 0 and Day 10.

[3] = BIO11006 100 μM ip daily, days 1-7, nape of the neck, scale 0-5 (FIG. 4)

## Ac-GAQFSKTAAK-OH [BIO 11006]
[1]; BIO11006 100 μM ip daily, days 1-7 (FIG. 3)
  visible appearance of the skin on the nape of the neck: visible protection/improvement
[1]; [3]
  skin bumps: significant decreases
  skin dryness: significant decreases
  skin flakiness: significant decreases
  skin redness: significant decreases
[1]; BIO11006 100 μM ip, daily single dose days 1-7, end of the study, vs imiquimod + PBS (FIG. 2B)
  skin thickness: significant decrease
[2]
  results in the mouse model of AD (skin thickness, FIG. 1B): less conclusive
